Source: PubChem BioAssay AID1353 (Sanford-Burnham Center for Chemical Genomics, 2008)
Calls of active or inactive are those of the source.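 Rule for the calls: active = ATP loss reduced by over 30% versus thapsigargin-only wells, at any thapsigargin dose tested; inactive = the rest.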

Tested on: C17.2 differentiated neurons, thapsigargin death, ATPlite, 24 h
Test: rescue of C17.2 neurons from thapsigargin, SAR follow-up, cell-based, differentiated mouse neural stem C17.2, ATP luminescence (AID 1353)
Conditions: at 25 µM, stronger effect = higher value
[1] = measured here: survival at thapsigargin 5 uM
[2] = measured here: survival at thapsigargin 15 uM

Compound | survival | survival [1] [%] | survival [2] [%]
COc1ccc(C2CC(=O)C3=C(C2)Nc2ccccc2NC3c2cccc(Br)c2)cc1OC (stereo not drawn) | 7% (inactive) | 67 | 0
O=C1CC(c2ccccc2)CC2=C1C(c1c(F)cccc1Cl)Nc1ccccc1N2 (stereo not drawn) | 10% (inactive) | 87 | 1
CC1(C)CC(=O)C2=C(C1)Nc1ccccc1NC2c1ccc(-c2ccccc2)cc1 (stereo not drawn) | 1% (inactive) | 45 | 0
COc1ccc(C2CC(=O)C3=C(C2)Nc2ccccc2NC3c2cc(C)ccc2C)cc1 (stereo not drawn) | 2% (inactive) | 69 | 0
CSc1ccc(C2Nc3ccccc3NC3=C2C(=O)CC(c2ccccc2)C3)cc1 (stereo not drawn) | 2% (inactive) | 86 | 0
COc1ccc(C2CC(=O)C3=C(C2)Nc2ccccc2NC3c2cccc(Oc3ccccc3)c2)cc1OC (stereo not drawn) | 50% | 68 | 1
COc1ccc(C2CC(=O)C3=C(C2)Nc2ccccc2NC3c2cccc(C(F)(F)F)c2)cc1OC (stereo not drawn) | 5% (inactive) | 59 | 0
CCOc1cc(C2Nc3ccccc3NC3=C2C(=O)CC(c2ccc(OC)cc2)C3)cc(Cl)c1O (stereo not drawn) | 1% (inactive) | 79 | 0
CCCOc1ccc(C2Nc3ccccc3NC3=C2C(=O)CC(c2ccc(OC)c(OC)c2)C3)cc1 (stereo not drawn) | 20% (inactive) | 62 | 1
COc1ccc(C2CC(=O)C3=C(C2)Nc2ccccc2NC3c2ccccc2C(F)(F)F)cc1OC (stereo not drawn) | 12% (inactive) | 55 | 1
CCOc1cccc(C2Nc3ccccc3NC3=C2C(=O)CC(c2ccc(OC)cc2)C3)c1 (stereo not drawn) | 1% (inactive) | 83 | 0
